Test results from patent US20210322443A1 (MAPREG, priority 2015, published 2021).

Key:
[1] = biological target: MAP2 (Homo sapiens, UniProt P11137); assay: Binding by displacement of PREG-3H
[2] = biological target: purified tubulin and MAP2 (Homo sapiens, UniProt P11137); assay: Increase in optical density at 345 nm of purified tubulin and MAP2 (microtubule polymerization); assay type: biochemical; conditions: 37° C., GTP
Procedure: Activity is measured by the increase in optical density at 345 nm of a mixture of purified tubulin and MAP2, incubated at 37° C. in the presence of GTP.

[3] = test system: PC12 cells; assay: Stimulation of neuritic sprouting in NGF-differentiated PC12 cells; assay type: cell-based; conditions: NGF 10 ng/ml, steroid 30 μM, 3 days, relative to PREG
Procedure: Stimulation of neuritic sprouting is conducted on PC12 cells differentiated in the presence of NGF (10 ng/ml) and the steroid being tested (30 μM) for 3 days. For each condition, the average length of the longest 200 neurites in each cell is measured simultaneously for 3 cultures.

[4] = biological target: T1, human progesterone receptor(PR) (Homo sapiens, UniProt P06401); assay: Progesterone receptor agonist transactivation (MMTV-luciferase) in transfected HEK293T cells; assay type: cell-based; conditions: 24 hours, increasing amounts, FIG. 1
T1 construct: expressed in transfected cells; host or cells: HEK293T
T1 sequence (P06401 1-933): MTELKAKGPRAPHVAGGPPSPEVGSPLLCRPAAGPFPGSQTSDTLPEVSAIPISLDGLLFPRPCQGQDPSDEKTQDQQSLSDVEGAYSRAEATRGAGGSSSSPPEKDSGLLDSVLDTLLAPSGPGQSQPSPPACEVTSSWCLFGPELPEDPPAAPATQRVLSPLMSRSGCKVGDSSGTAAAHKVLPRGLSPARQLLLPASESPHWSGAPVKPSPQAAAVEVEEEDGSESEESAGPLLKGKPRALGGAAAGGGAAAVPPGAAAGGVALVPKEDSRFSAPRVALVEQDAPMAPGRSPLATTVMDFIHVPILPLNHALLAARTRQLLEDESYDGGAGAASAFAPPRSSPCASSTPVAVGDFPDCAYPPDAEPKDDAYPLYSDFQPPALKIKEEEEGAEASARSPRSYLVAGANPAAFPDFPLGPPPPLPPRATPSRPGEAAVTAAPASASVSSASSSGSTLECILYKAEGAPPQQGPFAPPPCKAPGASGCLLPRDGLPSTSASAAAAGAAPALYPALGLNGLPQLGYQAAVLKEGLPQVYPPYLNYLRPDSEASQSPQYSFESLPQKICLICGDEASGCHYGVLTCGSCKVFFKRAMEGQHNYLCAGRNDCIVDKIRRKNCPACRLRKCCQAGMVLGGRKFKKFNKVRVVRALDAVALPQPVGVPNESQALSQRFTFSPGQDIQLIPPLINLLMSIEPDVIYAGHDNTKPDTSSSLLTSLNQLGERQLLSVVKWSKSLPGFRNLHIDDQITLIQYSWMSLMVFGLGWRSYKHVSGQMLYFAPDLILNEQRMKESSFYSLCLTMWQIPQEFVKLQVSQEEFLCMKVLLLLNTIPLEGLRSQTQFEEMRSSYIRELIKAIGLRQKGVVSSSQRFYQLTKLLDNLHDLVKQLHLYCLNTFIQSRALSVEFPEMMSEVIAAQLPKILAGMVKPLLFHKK
Procedure: The main experimental setting used is the following: HEK293T cells were transiently transfected, using calcium phosphate precipitation technology, with expression vectors pSG5hPR (which permits expression of human progesterone receptor(PR)), pFC31-luc (contains the luciferase gene under the control of the MMTV promoter, which is in turn activated by binding of a progestin to progesterone receptor) and pcbetagal (which permits expression of betagalactosidase), and cultured during 24 hours with increasing amounts of various compositions: • 1. […] Test of progesterone receptor […] activity: transfected cells were cultured with progesterone (1 nM) and increasing amounts of RU486 (a well-known progesterone receptor antagonist) or 3-methoxy-pregnenolone. • With this setting, a compound with progesterone receptor antagonist activity competes with progesterone for the occupation of progesterone receptor and results in a progressive loss of transactivation activity when the amount of this compound is increased compared to progesterone.

MAP2, sequence (P11137 whole entry): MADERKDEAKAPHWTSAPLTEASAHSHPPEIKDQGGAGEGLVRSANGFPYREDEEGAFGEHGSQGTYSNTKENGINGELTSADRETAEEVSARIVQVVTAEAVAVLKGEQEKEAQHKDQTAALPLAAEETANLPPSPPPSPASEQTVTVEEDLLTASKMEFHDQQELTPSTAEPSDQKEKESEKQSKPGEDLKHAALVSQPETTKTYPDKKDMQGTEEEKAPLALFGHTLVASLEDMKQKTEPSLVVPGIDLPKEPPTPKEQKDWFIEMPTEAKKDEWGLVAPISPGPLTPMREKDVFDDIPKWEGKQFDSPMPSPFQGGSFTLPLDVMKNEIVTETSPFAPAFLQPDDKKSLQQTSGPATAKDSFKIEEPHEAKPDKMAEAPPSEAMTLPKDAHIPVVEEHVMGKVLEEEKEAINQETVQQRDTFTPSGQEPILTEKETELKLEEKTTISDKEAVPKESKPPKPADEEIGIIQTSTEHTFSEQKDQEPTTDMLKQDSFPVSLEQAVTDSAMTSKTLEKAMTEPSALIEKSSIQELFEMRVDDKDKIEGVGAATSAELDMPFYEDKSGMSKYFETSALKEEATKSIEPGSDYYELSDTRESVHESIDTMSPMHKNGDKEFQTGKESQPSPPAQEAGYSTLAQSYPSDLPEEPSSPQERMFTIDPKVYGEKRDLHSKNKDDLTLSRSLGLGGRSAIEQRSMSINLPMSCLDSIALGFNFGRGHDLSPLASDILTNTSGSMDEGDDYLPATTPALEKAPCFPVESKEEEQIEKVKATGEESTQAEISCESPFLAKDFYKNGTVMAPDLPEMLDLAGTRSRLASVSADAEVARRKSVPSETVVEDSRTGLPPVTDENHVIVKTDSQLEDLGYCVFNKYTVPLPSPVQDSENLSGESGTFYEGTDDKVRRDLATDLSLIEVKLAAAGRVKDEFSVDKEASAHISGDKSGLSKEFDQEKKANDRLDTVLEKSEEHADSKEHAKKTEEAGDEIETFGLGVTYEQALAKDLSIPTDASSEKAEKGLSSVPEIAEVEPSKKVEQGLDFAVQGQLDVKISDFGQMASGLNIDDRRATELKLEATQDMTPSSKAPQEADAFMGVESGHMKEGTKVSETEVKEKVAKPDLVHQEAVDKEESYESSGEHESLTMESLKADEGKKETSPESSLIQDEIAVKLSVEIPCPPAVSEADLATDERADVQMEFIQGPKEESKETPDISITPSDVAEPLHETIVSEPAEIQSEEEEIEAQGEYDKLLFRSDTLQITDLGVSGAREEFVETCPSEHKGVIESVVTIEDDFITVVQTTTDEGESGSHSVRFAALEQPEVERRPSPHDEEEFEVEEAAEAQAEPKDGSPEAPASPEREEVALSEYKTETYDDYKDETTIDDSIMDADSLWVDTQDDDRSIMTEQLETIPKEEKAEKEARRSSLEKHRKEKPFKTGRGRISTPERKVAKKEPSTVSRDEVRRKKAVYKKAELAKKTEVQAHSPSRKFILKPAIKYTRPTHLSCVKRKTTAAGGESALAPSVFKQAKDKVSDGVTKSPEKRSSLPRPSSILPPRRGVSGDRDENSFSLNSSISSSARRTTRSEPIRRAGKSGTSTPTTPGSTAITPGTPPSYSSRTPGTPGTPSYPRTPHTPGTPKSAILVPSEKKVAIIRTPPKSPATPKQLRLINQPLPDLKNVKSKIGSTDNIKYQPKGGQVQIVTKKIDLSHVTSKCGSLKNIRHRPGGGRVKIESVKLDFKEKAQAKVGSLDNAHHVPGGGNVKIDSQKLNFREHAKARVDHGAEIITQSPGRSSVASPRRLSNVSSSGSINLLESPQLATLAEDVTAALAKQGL
purified tubulin and MAP2, sequence (P11137 whole entry): as above

| Compound | Affinity (index of binding, percent of PREG) [1] | Activity (percent of PREG) [2] | Neuritic sprouting [3] | progesterone receptor agonist activity (transactivation, luciferase expression) [4] |
| --- | --- | --- | --- | --- |
| CO[C@H]1CC[C@@]2(C)[C@@H](CC[C@@H]3[C@@H]2CC[C@]2(C)[C@@H](C(C)=O)CC[C@@H]32)C1 [3B-methoxy-5a-pregnane-20-one, 3β-methoxy-5α-pregnane-20-one] | 87% of PREG | 10% of PREG | +++ |  |
| CO[C@H]1CC[C@@]2(C)C(CCC3C2CC[C@@]2(C)C3CC[C@@H]2[C@@H](C)O)C1 (stereo partly drawn) [3B-methoxy-5a-pregnane-20B-ol, 3β-methoxy-5α-pregnane-20β-ol] | 65% of PREG | 65% of PREG | ++ (equal to) |  |
| CO[C@H]1CC[C@@]2(C)C(=CC[C@H]3C4=CC[C@H](C(C)=O)[C@@]4(C)CC[C@@H]32)C1 [3B-methoxy-pregna-5,14-diene-20-one] | 102% of PREG | 50% of PREG | + (stimulation is lower than) |  |
| CO[C@H]1CC[C@@]2(C)C(=CC[C@@H]3[C@@H]2CC[C@@]2(C)[C@H]3CC[C@@]2(C(C)=O)C(Cl)Cl)C1 [3β-methoxy-pregna-5-ene-20-one-17α-dichloromethyl] | 53% of PREG | 113% of PREG |  |  |
| CC(=O)[C@H]1CC[C@H]2[C@@H]3CC=C4C[C@@H](O)CC[C@]4(C)[C@H]3CC[C@]12C [Pregnenolone (PREG), 3β-hydroxypregn-5-en-20-one, reference compound] | 100% of PREG | 100% of PREG |  |  |
| CC(=O)[C@H]1CC[C@H]2[C@@H]3CCC4=CC(=O)CC[C@]4(C)[C@H]3CC[C@]12C [progesterone, reference compound] |  |  |  | permits a transactivation activity leading to the expression of luciferase |
